# Read-outs that look alike come from different tables or passages of the source.
# Legend:
# [1] = tested on: CYP450 enzymes; test: CYP450-mediated dealkylation of BFC and MFC in micropatterned rat co-cultures; format: in vitro ADME
# Experimental: Therefore, in order to improve the signal-to-noise ratio, levels of CYP1A was ‘induced’ by pre-incubating co-cultures with 3 μM 3-Methylcholanthrene (3-MC) for 3 days prior to assessment of substrate metabolism. […] ER and MR are fluorimetric substrates specific for CYP1A enzymes. […] Use of non-specific substrates provides for an ‘average’ value of CYP450 activity, and is useful to determine whether CYP450 enzymes are functional in a particular system. In FIG. 22A, co-cultures were able to successfully dealkylate BFC and MFC into 7-HFC. […] CYP450 enzymes are oxido-reductases that are part of the Phase I metabolic pathway in hepatocytes. The phase II family of enzymes, on the other hand, is typically involved in the conjugation of highly polar moieties (i.e. sulfate group, glucuronic acid) to xenobiotics to make them water-soluble for excretion out of the body via bile or through the kidneys. A useful substrate for evaluating conjugation reactions is the fluorescent substrate, 7-Hydroxycoumarin (7-HC), which gets modified to non-fluorescent compounds, 7-HC-Glucuronide and 7-HC-Sulfate. The level of conjugation can then be quantified by using bacterial-derived β-glucuronidase and aryl-sulfatase enzymes to ‘deconjugate’ the Phase II products and recover 7-HC fluorescence. In our micropatterned rat co-cultures, we observed time-dependent conjugation of 7-HC by Phase-II enzymes (FIG. 22B). […]
# [2] = target: T1, CYP2A6 (Homo sapiens, UniProt P11509)
# T1 sequence (P11509 1-494): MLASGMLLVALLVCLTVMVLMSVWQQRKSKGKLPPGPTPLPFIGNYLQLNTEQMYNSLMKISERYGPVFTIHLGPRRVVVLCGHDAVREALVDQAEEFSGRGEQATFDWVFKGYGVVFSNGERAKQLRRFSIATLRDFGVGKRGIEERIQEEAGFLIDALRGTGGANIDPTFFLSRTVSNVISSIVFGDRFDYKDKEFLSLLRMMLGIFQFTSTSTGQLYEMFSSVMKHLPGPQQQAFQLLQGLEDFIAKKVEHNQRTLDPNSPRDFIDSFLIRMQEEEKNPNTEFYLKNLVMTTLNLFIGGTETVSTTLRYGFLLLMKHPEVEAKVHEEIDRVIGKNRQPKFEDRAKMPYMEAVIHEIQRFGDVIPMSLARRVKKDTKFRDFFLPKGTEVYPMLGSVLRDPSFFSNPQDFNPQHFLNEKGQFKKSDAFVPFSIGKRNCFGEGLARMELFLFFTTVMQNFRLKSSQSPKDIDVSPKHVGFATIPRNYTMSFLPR
# [3] = tested on: CYP1A
# Experimental: Cultures were treated for 3-4 days before incubation with fluorometric or conventional CYP450 substrates. All data was normalized to vehicle-only controls (fold change of 1). […] Substrate/inhibitor combinations: BFC/ketoconazole (CYP3A4), MFC/sulfaphenazole (CYP2C9), Coumarin/methoxsalen (CYP2A6), and 7-Hydroxycoumarin/Salicylamide (Glucuronidation). […] Data were normalized to vehicle-only controls.
# Stock solutions of prototypic CYP450 inducers (Sigma) were made in Dimethylsulfoxide (DMSO), except for Phenobarbital, which was dissolved in water. […] Control cultures were treated with vehicle (DMSO) alone for calculations of fold induction. To enable comparisons across inducers, DMSO levels were kept constant at 0.1% (v/v) for all conditions.
# [4] = tested on: micropatterned co-cultures of primary human hepatocytes and 3T3-J2 fibroblasts
# Experimental: Mitochondrial toxicity was evaluated using the MTT assay. […] All data were normalized to a vehicle-only control. […] Tissues were dosed repeatedly every 48 hours. All data was normalized to mitochondrial activity in untreated cultures (100% activity).
# In order to assess the utility of micropatterned co-cultures for toxicity screening, the acute and chronic toxicity of model hepatotoxins was quantified. […] Establishment of liver tissue that is stable over several weeks is crucial for evaluating chronic toxicity due to repeated exposures.
# Cultures were incubated with various concentrations of compounds dissolved in culture medium for 24 hours (acute toxicity) or extended time periods (chronic toxicity, 1-9 days). Cell viability was subsequently measured via the MTT (3-(4,5-dimethylthiazol-2-yl)-2,5-diphenyl tetrazolium bromide; Sigma) assay, which involves cleavage of the tetrazolium ring by mitochondrial dehydrogenase enzymes to form a purple precipitate. MTT was added to cells in DMEM without phenol red at a concentration of 0.5 mg/mL. After an incubation time of 1 hour, the purple precipitate was dissolved in a 1:1 solution of DMSO and Isopropanol. The absorbance of the solution was measured at 570 nm (SpectraMax spectrophotometer, Molecular Devices, Sunnyvale, Calif.).
# [5] = tested on: CYP2A; test: Coumarin 7-hydroxylation in micropatterned rat co-cultures; format: in vitro ADME
# Source text: (§1) FIGS. 33A-33C depict a comparison of Phase I- and Phase II-mediated substrate metabolism in human and rat co-cultures. Micropatterned cultures with either primary human or primary rat hepatocytes were created using the stencil-based process. Subsequent addition of 3T3-J2 fibroblasts created co-cultures. […] Data from a single representative day is shown.
# (§2) Significant variations in hepatocellular functions (i.e. CYP450 enzymes) across different species have been implicated in the inability of animal models to adequately predict adverse outcomes in clinical trials involving humans. Nonetheless, studies in live animals are required by the FDA since they provide valuable in vivo data in a preclinical setting. Therefore, the selection of an animal species (i.e. rat, mouse, monkey, guinea pig) in which the liver-specific metabolism and toxicity of a particular candidate drug are similar to that seen in humans is crucial for clinical success. In vitro human and animal models that closely resemble in-vivo functionality may find use in such a selection process. […] For instance, BFC was dealkylated in rat co-cultures at a rate (pmoles/min/10^6 cells) that was ˜18 fold greater than the rate seen in human co-cultures.
# Spent media was stored at −20° C.
# [6] = target: T2, CYP2A (Homo sapiens, UniProt P11509); test: Coumarin 7-hydroxylation in micropatterned human co-cultures; format: in vitro ADME
# T2 construct: endogenous in cells; host or cells: primary human hepatocytes co-cultured with murine 3T3-J2 fibroblasts
# T2 sequence (P11509 1-494): T1 sequence (P11509 1-494)
# Source text: as §1, §2
# [7] = tested on: CYP3A; test: Inhibition of BFC dealkylation in rat co-cultures; conditions: BFC in the presence of ketoconazole
# [8] = tested on: co-cultures of primary rat hepatocytes and 3T3-J2 fibroblasts; conditions: for viability relative to untreated controls: 1 mM
# Experimental: Toxicity of pharmaceuticals due to chronic exposure is clinically relevant. Since hepatocyte culture models utilized in the pharmaceutical industry lose viability and phenotypic functions within a few days, toxicity due to repeated drug exposures over days or weeks cannot be evaluated. […] Co-cultures were incubated with varying doses of toxins dissolved in culture medium over several days. Mitochondrial activity (MTT assay, see methods) was evaluated at different time points to assess viability in co-cultures.
# Pure hepatocyte monolayers rapidly lose phenotypic functions and thus represent an ‘unstable’ model of the liver. […] The objective here was to compare toxicity of model Hepatotoxins in pure hepatocyte monolayers and co-cultures. Pure hepatocyte monolayers (Day 2 of culture) or hepatocyte-fibroblast co-cultures (Day 13) prepared from the same rat liver were treated with Hepatotoxins for 24 hours, after which viability was assessed via the MTT assay.
# All chemicals were purchased from Sigma. In order to evaluate the acute toxicity of compounds, cultures were incubated with various concentrations of compounds dissolved in culture medium for 24 hours. For chronic studies, culture media with fresh Hepatotoxins was added every 2 days. Cell viability at different time points was subsequently measured via the MTT assay.
# [9] = tested on: pure hepatocyte monolayers; conditions: rat, 24 h; for viability relative to untreated controls: 1 mM
# [10] = tested on: CYP1A2; test: Dose and time-dependent CYP1A2 induction in micropatterned co-cultures; conditions: incubation for 1 or 3 days
smiles,measurement,setting,value
O=c1cc(C(F)(F)F)c2ccc(OCc3ccccc3)cc2o1 [BFC],rate of BFC metabolism relative to rate of MFC metabolism,"[1]; rat co-cultures, day 14",~12 fold
same,rate of BFC dealkylation in rat relative to human co-cultures,"[1]; rat, human",~18 fold
COc1c2occc2cc2ccc(=O)oc12 [Methoxsalen],inhibition of CYP2A6 activity,[2],dose-dependent inhibition
COc1ccc2[nH]c([S+]([O-])Cc3ncc(C)c(OC)c3C)nc2c1 (centres unmarked) [Omeprazole],"CYP1A induction, effectiveness in human over rat models",[3],8 fold
[Cd] [cadmium],shape of dose-dependent acute toxicity profile,"[4]; 24 hrs exposure, MTT",relatively linear toxic profile
same,TC50 relative to other compounds,[4]; concentration producing 50% reduction in mitochondrial activity (MTT) after 24 hours exposure,three orders-of-magnitude lower than the TC50 values for aspirin and caffeine
O=c1ccc2ccccc2o1 [coumarin],coumarin hydroxylation,[5],unable to hydroxylate coumarin
same,rate of coumarin hydroxylation,[6],greater than 6 pmol/min/10^6 cells
CC(=O)N1CCN(c2ccc(OCC3COC(Cn4ccnc4)(c4ccc(Cl)cc4Cl)O3)cc2)CC1 (centres unmarked) [ketoconazole],inhibition of BFC dealkylation,[7],~33%
CN(C)CCN(Cc1cccs1)c1ccccn1 [methapyrilene],relative toxicity in pure monolayers versus co-cultures,[8],more toxic to pure monolayers as compared to co-cultures
same,TC50,"[8]; rat, 24 h",1400 to 1600 µM
same,viability relative to untreated controls,"[8]; rat, 24 h",greater than 80%
same,viability relative to untreated controls,[9],less than 6%
COc1ccc(CN(CCN(C)C)c2ccccn2)cc1 [pyrilamine],relative toxicity in pure monolayers versus co-cultures,[8],more toxic to pure monolayers as compared to co-cultures
same,TC50,"[8]; rat, 24 h",1000 to 1200 µM
same,viability relative to untreated controls,"[8]; rat, 24 h",greater than 80%
same,TC50,"[8]; rat, 7 days",~200 µM
same,viability relative to untreated controls,[9],less than 6%
Cc1c(C)c2c(c(C)c1O)CCC(C)(COc1ccc(CC3SC(=O)NC3=O)cc1)O2 (centres unmarked) [troglitazone],chronic toxicity,[4],dose and time-dependent toxicity
same,relative toxicity in pure monolayers versus co-cultures,[8],more toxic to co-cultures as compared to pure monolayers
same,reduction of viability,"[8]; rat, 24 h, 170 μM",~44%
same,concentration giving ~44% reduction of viability,[9],227 µM
O=c1cc(-c2ccccc2)oc2ccc3ccccc3c12 [β-Naphthoflavone],induction of CYP1A2 activity,[10],induced CYP1A2 activity in a dose and time-dependent manner

# Reference: patent US11366103B2, “Multi-well micropatterning by ablation” (Massachusetts Institute of Technology, priority 2006, dated 2022)
